Laboratory results as given in PubChem BioAssay AID588616 (The Scripps Research Institute Molecular Screening Center, 2011).

Experiments:
[1] = molecular target: Mitogen-activated protein kinase 14 (Homo sapiens) (UniProt Q16539); experiment: phospho-p38 protein level change, either direction, late-stage follow-up, counter-screen for KLF5 inhibitor project, DLD1 cells, chemiluminescent western blot, powder samples (AID 588616); settings: DLD-1 cells, phospho-p38 western blot, 24 h; at 10 µM; stronger effect = higher value
Chain of Mitogen-activated protein kinase 14 (Homo sapiens) (Q16539 whole entry, looked up): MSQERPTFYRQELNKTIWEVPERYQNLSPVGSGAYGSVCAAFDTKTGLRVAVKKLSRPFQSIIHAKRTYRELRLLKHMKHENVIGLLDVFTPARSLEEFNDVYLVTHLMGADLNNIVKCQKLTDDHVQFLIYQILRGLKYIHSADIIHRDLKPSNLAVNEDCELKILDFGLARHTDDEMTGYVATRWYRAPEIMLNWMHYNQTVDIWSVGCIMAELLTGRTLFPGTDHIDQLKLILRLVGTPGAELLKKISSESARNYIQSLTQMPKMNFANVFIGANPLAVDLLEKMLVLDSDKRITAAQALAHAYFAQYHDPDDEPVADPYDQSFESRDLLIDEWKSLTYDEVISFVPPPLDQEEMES

[2] = system: DLD-1 cells, phospho-p38 western blot, 24 h; experiment: as above; settings: measured here: phospho-p38 band fold change vs DMSO; at 10 µM; stronger effect = lower value

| Structure (SMILES) | inhibition [1] [%] | fold change [2] |
| --- | --- | --- |
| CN(C(=O)CNC(=O)/C=C/c1cccc(Cl)c1)C1CCS(=O)(=O)C1 (stereo unspecified) | -114 | 2.14 |
| CN(C(=O)COC(=O)/C=C/c1cccc([N+](=O)[O-])c1)C1CCS(=O)(=O)C1 (stereo unspecified) | -197 | 2.97 |
| CN(C(=O)CNC(=O)/C=C/c1cccc(Cl)c1)C1CCS(=O)(=O)CC1 | -144 | 2.44 |
